IC50 data for nine molecules are collected here from US5145960A, “Pyrimidinyl tetrahydrofurans” (priority 1991, dated 1992).

Common to all, as to type: cell-based
The test system of test [1] is HSV-1 (herpes simplex virus type 1). As to the kind of experiment: HSV-1 (strain schooler) plaque reduction in WI-38 cell monolayers. As to conditions: Human alphaherpesvirus 1, 96 h; WI-38 cells; at least 50% plaque reduction; 4 days at 37° C.; read-out: ID50 HSV-1 (strain schooler).
The subject of test [2] is HSV-2 (herpes simplex virus type 2). As to the kind of experiment: HSV-2 (strain 186) plaque reduction in WI-38 cell monolayers. The note with it: Human alphaherpesvirus 2, 96 h; WI-38 cells; at least 50% plaque reduction; 4 days at 37° C.; read-out: ID50 HSV-2 (strain 186).
Test [3] has as its system VZV (varicella-zoster virus), strain Ellen. As to the kind of experiment: VZV (strain Ellen) plaque reduction in WI-38 cell monolayers. As to conditions: Human alphaherpesvirus 3; WI-38 cells; at least 50% plaque reduction; 5-7 days at 37° C.; read-out: ID50 VZV (strain Ellen).
Test [4] has as its system HCMV (human cytomegalovirus). As to the kind of experiment: HCMV (strain AD169) plaque reduction in WI-38 cell monolayers. The note with it: Human betaherpesvirus 5, AD169; WI-38 cells; at least 50% plaque reduction; 5-7 days at 37° C.; read-out: ID50 HCMV (strain AD169).
The test system of test [5] is VV (vaccinia virus). As to the kind of experiment: microbe, parasite or virus in culture. As to conditions: Orthopoxvirus vaccinia, WI-38, 96 h, read-out: ID50 VV (strain CL).
The test system of test [6] is VZV (varicella-zoster virus), strain Oka. As to the kind of experiment: VZV (strain Oka) plaque reduction in WI-38 cell monolayers. As to conditions: Human alphaherpesvirus 3, WI-38, read-out: ID50 VZV (strain Oka).

As for `Nc1nc2c(ncn2[C@@H]2CO[C@H](CO)[C@H]2CO)c(=O)[nH]1` [Example 1, [3S-(3α,4β,5α)]-2-Amino-1,9-dihydro-9-[tetrahydro-4,5-bis(hydroxymethyl)-3-furanyl]-6H-purin-6-one], the IC50 in test [1] was 7 µM; in test [2], 1.8 µM; in test [3], 18 to 36 µM; in test [4], 356 µM; in test [5], over 356 µM.

`Nc1ncnc2c1ncn2[C@@H]1CO[C@H](CO)[C@H]1CO` [Example 2, [3S-(3α,4β,5α)]-9-[Tetrahydro-4,5-bis(hydroxymethyl)-3-furanyl]-9H-purin-6-amine]: the IC50 in test [1] lay within 3.8 to 7.5 µM; in test [2] it was 3.8 to 7.5 µM; in test [3] it was 1.9 to 3.8 µM; in test [4], 1.9 to 3.8 µM; in test [5], 8 to 19 µM.

As for `Cc1cn([C@@H]2CO[C@H](CO)[C@H]2CO)c(=O)[nH]c1=O` [Example 3, [3S-(3α,4β,5α)]-5-Methyl-1-[tetrahydro-4,5-bis(hydroxymethyl)-3-furanyl]-2,4(1H,3H)-pyrimidinedione], the IC50 was 2 to 4 µM in test [1], 195 to 390 µM in test [2], 8 to 19 µM in test [3] and over 390 µM in test [4].

As to `O=c1ccn([C@@H]2CO[C@H](CO)[C@H]2CO)c(=O)[nH]1` [Example 4, [3S-(3α,4β,5α)]-1-[Tetrahydro-4,5-bis(hydroxymethyl)-3-furanyl]-2,4(1H,3H)-pyrimidinedione], the IC50 in test [1] was over 413 µM; in test [2], over 413 µM; in test [3] it was 41 to 103 µM; in test [4], over 413 µM.

`O=c1[nH]c(=O)n([C@@H]2CO[C@H](CO)[C@H]2CO)cc1I` [Example 5, [3S-(3α,4β,5α)]-5-Iodo-1-[tetrahydro-4,5-bis(hydroxymethyl)-3-furanyl]-2,4(1H,3H)-pyrimidinedione]: the IC50 was 68 to 136 µM in test [1], over 272 µM in test [2], 27 to 68 µM in test [3] and over 272 µM in test [4].

On to `Nc1ccn([C@@H]2CO[C@H](CO)[C@H]2CO)c(=O)n1` [Example 6, [3S-(3α,4β,5α)]-4-Amino-1-[tetrahydro-4,5-bis(hydroxymethyl)-3-furanyl]-2(1H)-pyrimidinone], for which the IC50 is 21 to 41 µM in test [1]; 21 to 41 µM in test [2]; 0.2 to 0.4 µM in test [3]; 41 to 104 µM in test [4]; 41 to 415 µM in test [5].

Take `O=c1[nH]c(=O)n([C@@H]2CO[C@H](CO)[C@H]2CO)cc1/C=C/Br` [Example 7, [3S-(3α(E),4β,5α)]-5-(2-Bromoethenyl)-1-[tetrahydro-4,5-bis(hydroxymethyl)-3-furanyl]-2,4(1H,3H)-pyrimidinedione]: the IC50 was 1.4 to 2.8 µM in test [1]; over 288 µM in test [2]; over 288 µM in test [3]; 1.4 µM in test [6]; over 288 µM in test [4].

For `Cc1cn([C@@H]2CO[C@H](CO)[C@H]2CO)c(=O)nc1N` [Example 8, [3S-(3α,4β,5α)]-4-Amino-5-methyl-1-[tetrahydro-4,5-bis(hydroxymethyl)-3-furanyl]-2(1H)-pyrimidinone], the IC50 is 293 µM in test [1], 392 µM in test [2], 40 µM in test [3] and over 392 µM in test [4].

Consider `Nc1nc(=O)n([C@@H]2CO[C@H](CO)[C@H]2CO)cc1I` [Example 9, [3S-(3α,4β ,5α)]-4-Amino-5-iodo-1-[tetrahydro-4,5-bis(hydroxymethyl)-3-furanyl]-2(1H)-pyrimidinone], for which the IC50 is 68 to 136 µM in test [1], over 272 µM in test [2], 5 to 14 µM in test [3] and over 272 µM in test [4].
